15 compounds from patent US8546608B2, “Proteasome inhibitors and methods of using the same” (Cephalon, Inc., priority 2003, dated 2013) can be followed below.

The target in series [1] is T1, 20S Human Erythrocyte Proteasome (HEP) (Homo sapiens, UniProt P20618+P28074).
T1 construct: 20S Human Erythrocyte Proteasome (HEP), purchased from Immatics Biotechnologies Inc; purchased Immatics Biotechnologies Inc., Tübingen, Germany; host or cells: human erythrocytes (natural source)
In words: Chymotrypsin-like activity of 20S Human Erythrocyte Proteasome (HEP), IC50 determination. Particulars: assay of Example C, inhibition of HEP. Type of series: biochemical. The essentials:
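20S proteasome at 0.2 μg/mL (about 0.6 nM catalytic sites) in 20 mM Tris with 0.04% SDS, preincubated 15 min at 37° C with inhibitor before Suc-LLVY-AMC (100 μM final). AMC fluorescence read in the linear range; triplicates, IC50 from concentration series.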

Series [2] deals with T2, proteasome in Molt-4 cells (human leukemia) (Homo sapiens, UniProt P20618+P28074).
T2 sequence (P28074 60-263): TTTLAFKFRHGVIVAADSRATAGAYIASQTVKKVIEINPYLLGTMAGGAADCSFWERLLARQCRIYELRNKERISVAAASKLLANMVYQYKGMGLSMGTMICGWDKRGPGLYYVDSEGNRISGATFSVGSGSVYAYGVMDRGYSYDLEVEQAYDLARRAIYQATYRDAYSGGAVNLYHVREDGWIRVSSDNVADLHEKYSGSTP
T2 sequence (P20618 29-241): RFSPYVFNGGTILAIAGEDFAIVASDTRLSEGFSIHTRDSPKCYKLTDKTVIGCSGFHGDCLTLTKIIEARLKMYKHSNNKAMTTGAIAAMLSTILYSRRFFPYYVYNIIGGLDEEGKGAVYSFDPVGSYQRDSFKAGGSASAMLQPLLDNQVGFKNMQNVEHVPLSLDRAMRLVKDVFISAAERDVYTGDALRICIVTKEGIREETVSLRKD
Type of series: cell-based. The procedure, abridged:
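Intact Molt-4 cells (6×10^6 cells/mL) in HEPES-buffered saline were preincubated with inhibitor 15 min at 37 °C, then given cell-permeable MeOSuc-FLF-AFC at 25 μM final.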

Where [3] appears, read: assay of Example E, inhibition of MOLT4; read-out: MOLT4 (EC50).

Like-named read-outs stand apart in the source and are kept apart here.

As usually defined, the IC50 is the midpoint of a concentration-inhibition curve. The low end stands for greater potency, the high end for weaker potency. The term melting point denotes the temperature, or range, at which the solid turns liquid. The EC50 is the concentration giving half of the maximal effect.

On to `CCCCc1ccc(C(=O)N[C@@H](CNC(=O)c2ccc(S(C)(=O)=O)cc2)C(=O)N[C@@H](CC(C)C)B(O)O)cc1` [E.5.20, Boronic acid, [(1R)-1-[[(2S)-3-[(4-methylsulfonyl)benzoylamino]-2-[(4-butylbenzoylamino)]-1-oxopropyl]amino]-3-methylbutyl]], for which the melting point lay within 168 to 170 °C. Also, in series [1], the half-inhibitory concentration (IC50) was under 10 nM. For the same compound, the concentration giving a half-maximal response (EC50) in series [2] (setting [3]) was under 200 nM.
On the same counts, the results for `CCCCCCCCCC(=O)N[C@@H](CNC(=O)c1cccnc1)C(=O)N[C@@H](CC(C)C)B(O)O` [E.5.22, Boronic acid, [(1R)-1-[[(2S)-3-(nicotinoylamino)-2-(decanoylamino)-1-oxopropyl]amino]-3-methylbutyl]] are 136 to 141 °C, under 10 nM and under 200 nM.
The like results for `CCCCc1ccc(C(=O)N[C@@H](CNC(=O)c2ccc(-c3nn[nH]n3)cc2)C(=O)N[C@@H](CC(C)C)B(O)O)cc1` [E.5.24, Boronic acid, [(1R)-1-[[(2S)-3-[4-(1H-tetrazolyl)-phenylcarbonylamino]-2-[(4-butylbenzoylamino)]-1-oxopropyl]amino]-3-methylbutyl]] were, in that order, over 250 °C, under 10 nM and 200 to 2000 nM.
On to `CCCCc1ccc(C(=O)N[C@@H](CNC(=O)c2ccno2)C(=O)N[C@@H](CC(C)C)B(O)O)cc1` [E.5.25, Boronic acid, [(1R)-1-[[(2S)-3-(2-isoxazolylcarbonylamino)-2-[(4-butylbenzoylamino)]-1-oxopropyl]amino]-3-methylbutyl]], for which the melting point lay within 175 to 180 °C. The IC50 in series [1] was under 10 nM. The EC50 in series [2] (setting [3]) was under 200 nM.
The like results for `CCCCc1ccc(C(=O)N[C@@H](CNS(=O)(=O)c2cn(C)cn2)C(=O)N[C@@H](CC(C)C)B(O)O)cc1` [E.5.26, Boronic acid, [(1R)-1-[[(2S)-3-[1-methyl-1H-imidazole-4-sulfamoyl]-2-[(4-butylbenzoyl)amino]-1-oxopropyl]amino]-3-methylbutyl]] were, in that order, 120 to 123 °C, under 10 nM and 200 to 2000 nM.
Consider `CCCCc1ccc(C(=O)N[C@@H](CNS(=O)(=O)c2ccc(N3CCOCC3)nc2)C(=O)N[C@@H](CC(C)C)B(O)O)cc1.Cl` [E.5.27, Boronic acid, [(1R)-1-[[(2S)-3-[6-morpholin-4-yl-pyridine-3-sulfamoyl]-2-[(4-butylbenzoyl)amino]-1-oxopropyl]amino]-3-methylbutyl] hydrochloride], for which the melting point lay within 182 to 184 °C. The 50% inhibitory concentration (IC50) in series [1] was under 10 nM. Further, in series [2] (read-out: MOLT4 (EC50); assay of Example E, inhibition of MOLT4), the EC50 is under 200 nM.
The compound `CCCCc1ccc(C(=O)N[C@@H](CNC(=O)c2ccc(N3CCOCC3)nc2)C(=O)N[C@@H](CC(C)C)B(O)O)cc1` [E.5.28, Boronic acid, [(1R)-1-[[(2S)-3-(6-morpholinonicotinamide]-2-[(4-butylbenzoyl)amino]-1-oxopropyl]amino]-3-methylbutyl]] had a melting point of 178 to 180 °C. In series [1], the IC50 was under 10 nM. For the same compound, the half-maximal effective concentration (EC50) in series [2] (setting [3]) was under 200 nM.
With `CC(C)C[C@H](NC(=O)[C@H](CNS(=O)(=O)c1ccc(F)cc1)NC(=O)c1ccc(Oc2ccccc2)cc1)B(O)O` [E.5.30, Boronic acid, [(1R)-1-[[(2S)-3-[4-fluoro-benzenesulfonamide]-2-[(4-phenoxybenzoyl)amino]-1-oxopropyl]amino]-3-methylbutyl]], the melting point fell in the range of 150 to 155 °C. The same compound registered an IC50 in series [1] of under 10 nM. Also, the concentration for a half-maximal effect (EC50) in series [2] (setting [3]) lay within 200 to 2000 nM.
The like results for `Cc1cc(C(=O)NC[C@H](NC(=O)c2ccc(Oc3ccccc3)cc2)C(=O)N[C@@H](CC(C)C)B(O)O)n(C)n1` [E.5.31] were, in that order, 145 to 148 °C, under 10 nM and under 200 nM.
The like results for `CC(C)C[C@H](NC(=O)[C@H](CNC(=O)Nc1ccccc1)NC(=O)c1ccc(Oc2ccccc2)cc1)B(O)O` [E.5.32, Boronic acid, [(1R)-1-[[(2S)-3-(4-phenylureido]-2-[(4-phenoxybenzoyl)amino]-1-oxopropyl]amino]-3-methylbutyl]] were, in that order, 155 to 158 °C, under 10 nM and under 200 nM.
The like results for `CCCCc1ccc(C(=O)N[C@@H](CNC(=O)c2ccc(-c3ccccc3)cc2)C(=O)N[C@@H](CC(C)C)B(O)O)cc1` [E.5.33, Boronic acid, [(1R)-1-[[(2S)-3-(4-phenybenzamide]-2-[(4-butylbenzoyl)amino]-1-oxopropyl]amino]-3-methylbutyl]] were, in that order, 178 to 180 °C, under 10 nM and 200 to 2000 nM.
Turning to `CC(C)C[C@H](NC(=O)[C@H](CNC(=O)c1ccc(-c2ccccc2)cc1)NC(=O)c1ccc(Oc2ccccc2)cc1)B(O)O` [E.5.34, Boronic acid, [(1R)-1-[[(2S)-3-(4-phenylbenzamide]-2-[(4-phenoxybenzoyl)amino]-1-oxopropyl]amino]-3-methylbutyl]], the melting point was in the range of 158 to 160 °C. Moreover, the IC50 in series [1] is under 10 nM. Besides, in series [2] (setting [3]), the EC50 is under 200 nM.
On the same counts, the results for `CCCCc1ccc(C(=O)N[C@@H](CNC(=O)C#Cc2ccccc2)C(=O)N[C@@H](CC(C)C)B(O)O)cc1` [E.5.35] are 138 to 140 °C, under 10 nM and under 200 nM.
The like results for `CCCCc1ccc(C(=O)N[C@@H](CNC(=O)NS(=O)(=O)c2ccc(C)cc2)C(=O)N[C@@H](CC(C)C)B(O)O)cc1` [E.5.36] were, in that order, 175 to 177 °C, under 100 nM and 200 to 2000 nM.
The like results for `CCCCc1ccc(C(=O)N[C@@H](CNC(=O)c2csc(-c3ccncc3)n2)C(=O)N[C@@H](CC(C)C)B(O)O)cc1` [E.5.37, Boronic acid, [(1R)-1-[[(2S)-3-(4-(2-(4-pyridyl)-1,3-thiazole-4-carbonylamino)]-2-[(4-butylbenzoyl)amino]-1-oxopropyl]amino]-3-methylbutyl]] were, in that order, 155 to 158 °C, under 10 nM and under 200 nM.
